Key:
Test in all cases: relative viability (nuclei count vs DMSO), 5 days (fraction); higher = more cells survive
[1] = compound: CC1=C(C(=O)N2C=CSC2=N1)CCN3CCC(=C(C4=CC=CC=C4)C5=CC=C(C=C5)F)CC3 + O=C(CCCCCCC(=O)Nc1ccccc1)NO [Vorinostat] (partner 1 µM)
Procedure, shortened: (§1)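 Nuclei were stained with Hoechst during a one-step fixation (final 0.05% Triton X-100, 1% formaldehyde, 1 ug/ml Hoechst) carried out 5 days after dosing, then counted on 4× images. The cells, lung cancer lines in 1536-well plates, had been dosed by pin tool the day after seeding with one drug alone or a fixed anchor-drug dose plus five library-drug doses (not always all listed) in √10 steps. Relative viability is the nuclei count in treated wells divided by that in vehicle wells, and each value is the median of duplicate plates.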

[2] = compound: CC1=C(C(=O)N2C=CSC2=N1)CCN3CCC(=C(C4=CC=CC=C4)C5=CC=C(C=C5)F)CC3 + Cc1nc(Nc2ncc(C(=O)Nc3c(C)cccc3Cl)s2)cc(N2CCN(CCO)CC2)n1 [Dasatinib] (partner 0.075 µM)
Procedure, shortened: as §1

[3] = compound: CC1=C(C(=O)N2C=CSC2=N1)CCN3CCC(=C(C4=CC=CC=C4)C5=CC=C(C=C5)F)CC3 + CS(=O)(=O)N1CCN(Cc2cc3nc(-c4cccc5[nH]ncc45)nc(N4CCOCC4)c3s2)CC1 [Pictilisib] (partner 1 µM)
Procedure, shortened: as §1

[4] = compound: CC1=C(C(=O)N2C=CSC2=N1)CCN3CCC(=C(C4=CC=CC=C4)C5=CC=C(C=C5)F)CC3 + C[C@@H](Oc1cc(-c2cnn(C3CCNCC3)c2)cnc1N)c1c(Cl)ccc(F)c1Cl [Crizotinib] (partner 1 µM)
Procedure, shortened: as §1

Cell Line | relative viability ([1]; first compound 0.08 µM) | relative viability ([1]; first compound 0.253 µM) | relative viability ([1]; first compound 0.8 µM) | relative viability ([1]; first compound 2.53 µM) | relative viability ([1]; first compound 8 µM) | relative viability ([2]; first compound 0.08 µM) | relative viability ([2]; first compound 0.253 µM) | relative viability ([2]; first compound 0.8 µM) | relative viability ([2]; first compound 2.53 µM) | relative viability ([2]; first compound 8 µM) | relative viability ([3]; first compound 0.08 µM) | relative viability ([3]; first compound 0.253 µM) | relative viability ([3]; first compound 0.8 µM) | relative viability ([3]; first compound 2.53 µM) | relative viability ([3]; first compound 8 µM) | relative viability ([4]; first compound 0.08 µM) | relative viability ([4]; first compound 0.253 µM) | relative viability ([4]; first compound 0.8 µM) | relative viability ([4]; first compound 2.53 µM) | relative viability ([4]; first compound 8 µM)
NCI-H1666 | 1 | 0.911 | 1.11 | 1.09 | 0.891 | 0.794 | 0.689 | 0.827 | 0.861 | 0.63 | 0.393 | 0.434 | 0.381 | 0.461 | 0.431 | 0.909 | 0.939 | 0.839 | 0.937 | 0.866
NCI-H1734 | 0.881 | 0.652 | 0.734 | 0.86 | 0.747 | 0.484 | 0.438 | 0.458 | 0.468 | 0.35 | 0.476 | 0.468 | 0.485 | 0.504 | 0.331 | 0.661 | 0.653 | 0.625 | 0.672 | 0.467
NCI-H1755 | 0.704 | 0.71 | 0.789 | 0.759 | 0.571 | 0.373 | 0.422 | 0.462 | 0.401 | 0.269 | 0.387 | 0.482 | 0.42 | 0.423 | 0.37 | 0.927 | 0.87 | 0.907 | 0.997 | 0.722
NCI-H1915 | 0.554 | 0.584 | 0.538 | 0.524 | 0.383 | 0.371 | 0.315 | 0.305 | 0.374 | 0.252 | 1.21 | 1.01 | 0.969 | 1.04 | 0.835 | 0.953 | 1.01 | 0.957 | 0.862 | 0.521
NCI-H1944 | 0.442 | 0.502 | 0.499 | 0.54 | 0.377 | 0.243 | 0.237 | 0.193 | 0.215 | 0.242 | 0.369 | 0.336 | 0.343 | 0.333 | 0.37 | 1.06 | 1.08 | 1.22 | 1.14 | 1.07
NCI-H1975 | 0.761 | 0.748 | 0.748 | 0.774 | 0.492 | 0.355 | 0.395 | 0.345 | 0.386 | 0.304 | 0.337 | 0.296 | 0.271 | 0.291 | 0.273 | 0.984 | 0.96 | 0.93 | 0.943 | 0.583
NCI-H1993 | 0.87 | 0.715 | 0.885 | 0.92 | 0.756 | 0.513 | 0.533 | 0.559 | 0.596 | 0.507 | 0.755 | – | 0.766 | 0.727 | 0.73 | 0.708 | – | 0.796 | 0.906 | 0.832
NCI-H2009 | 0.71 | 0.715 | 0.728 | 0.778 | 0.556 | 0.369 | 0.304 | 0.28 | 0.332 | 0.285 | 1.05 | 0.843 | 0.736 | 0.956 | 0.723 | 1.25 | 1.12 | 0.968 | 1.14 | 1.11
NCI-H2023 | 0.657 | 0.56 | 0.648 | 0.695 | 0.399 | 0.549 | 0.58 | 0.602 | 0.513 | 0.363 | 0.257 | 0.239 | 0.238 | 0.263 | 0.28 | 0.69 | 0.566 | 0.725 | 0.649 | 0.563
NCI-H2085 | 0.85 | 0.827 | 0.758 | 0.807 | 0.707 | 0.279 | 0.224 | 0.202 | 0.242 | 0.258 | 0.449 | 0.462 | 0.45 | 0.442 | 0.409 | 0.692 | 0.986 | 0.921 | 0.861 | 0.649
NCI-H2087 | 0.865 | 0.591 | 0.859 | 0.625 | 0.485 | 0.91 | 0.87 | 0.882 | 0.752 | 0.637 | 0.769 | 0.868 | 0.835 | 0.997 | 0.554 | 0.818 | 0.813 | 0.94 | 0.944 | 0.525
NCI-H2126 | 0.794 | 0.852 | 0.784 | 0.802 | 0.631 | 0.529 | 0.553 | 0.565 | 0.634 | 0.689 | 0.493 | 0.509 | 0.477 | 0.516 | 0.579 | 1.08 | 1.03 | 1.09 | 1.02 | 0.992
NCI-H2170 | 0.638 | 0.791 | 0.739 | 0.715 | 0.463 | 0.516 | 0.472 | 0.65 | 0.669 | 0.496 | 0.295 | 0.287 | 0.256 | 0.304 | 0.338 | 1.2 | 1.17 | 1.36 | 1.11 | 0.927
NCI-H2228 | 0.474 | 0.557 | 0.636 | 0.599 | 0.337 | 0.542 | 0.555 | 0.562 | 0.546 | 0.338 | 0.648 | 0.295 | 0.276 | 0.504 | 0.283 | 0.6 | 0.486 | 0.376 | 0.539 | 0.322
NCI-H2347 | 0.538 | 0.603 | 0.573 | 0.579 | 0.453 | 0.263 | 0.31 | 0.311 | 0.48 | 0.283 | 0.417 | 0.691 | 0.764 | 0.394 | 0.614 | 0.692 | 0.801 | 0.675 | 0.508 | 0.684
NCI-H2405 | 1.18 | – | 1.08 | 1.06 | 0.789 | 0.23 | 0.223 | 0.208 | 0.186 | 0.184 | 0.426 | 0.432 | 0.481 | 0.531 | 0.347 | 0.817 | 0.788 | 0.871 | 0.858 | 0.725

— the supplement of paper PMC10307832
